From ChEMBL document CHEMBL6078713, “Synthesis and mechanistic studies of 4-aminoquinoline-Isatin molecular hybrids and Schiff's bases as promising antimicrobial agents” (Eur J Med Chem, 2025)
≈ marks a conversion by molar mass, not a printed value.

How the values were obtained:
[1] = tested on: Escherichia coli; experiment: Antibacterial activity against Escherichia coli MTCC 443 assessed as diameter of zone of inhibition at 500 ug/ml by agar disk diffusion method; type: functional; settings: read-out: DIZ
[2] = tested on: Enterococcus faecalis; experiment: Antibacterial activity against Enterococcus faecalis MTCC 439 assessed as diameter of zone of inhibition at 500 ug/ml by agar disk diffusion method; type: functional; settings: read-out: DIZ
[3] = tested on: Bacillus subtilis; experiment: Antibacterial activity against Bacillus subtilis MTCC 736 assessed as diameter of zone of inhibition at 500 ug/ml by agar disk diffusion method; type: functional; settings: read-out: DIZ
[4] = tested on: Staphylococcus aureus; experiment: Antibacterial activity against Staphylococcus aureus MTCC 902 assessed as diameter of zone of inhibition at 500 ug/ml by agar disk diffusion method; type: functional; settings: read-out: DIZ
[5] = tested on: Pseudomonas aeruginosa; experiment: Antibacterial activity against Pseudomonas aeruginosa MTCC 2453 assessed as diameter of zone of inhibition at 500 ug/ml by agar disk diffusion method; type: functional; settings: read-out: DIZ
[6] = tested on: Salmonella typhi; experiment: Antibacterial activity against Salmonella typhi assessed as diameter of zone of inhibition at 500 ug/ml by agar disk diffusion method; type: functional, Salmonella enterica subsp. enterica serovar Typhi; settings: Salmonella enterica, read-out: DIZ
[7] = tested on: Escherichia coli; experiment: Antibacterial activity against Escherichia coli MTCC 443 assessed as inhibition of bacterial growth incubated overnight by serial dilution based spectrophotometer; type: functional
[8] = tested on: Enterococcus faecalis; experiment: Antibacterial activity against Enterococcus faecalis MTCC 439 assessed as inhibition of bacterial growth incubated overnight by serial dilution based spectrophotometer; type: functional
[9] = tested on: Bacillus subtilis; experiment: Antibacterial activity against Bacillus subtilis MTCC 736 assessed as inhibition of bacterial growth incubated overnight by serial dilution based spectrophotometer; type: functional
[10] = tested on: Staphylococcus aureus; experiment: Antibacterial activity against Staphylococcus aureus MTCC 902 assessed as inhibition of bacterial growth incubated overnight by serial dilution based spectrophotometer; type: functional
[11] = tested on: Pseudomonas aeruginosa; experiment: Antibacterial activity against Pseudomonas aeruginosa MTCC 2453 assessed as inhibition of bacterial growth incubated overnight by serial dilution based spectrophotometer; type: functional
[12] = tested on: Salmonella typhi; experiment: Antibacterial activity against Salmonella typhi assessed as inhibition of bacterial growth incubated overnight by serial dilution based spectrophotometer; type: functional, Salmonella enterica subsp. enterica serovar Typhi; settings: Salmonella enterica
[13] = tested on: Escherichia coli; experiment: Bactericidal activity against Escherichia coli MTCC 443 assessed as inhibition of bacterial growth incubated overnight; type: functional
[14] = tested on: Enterococcus faecalis; experiment: Bactericidal activity against Enterococcus faecalis MTCC 439 assessed as inhibition of bacterial growth incubated overnight; type: functional
[15] = tested on: Bacillus subtilis; experiment: Bactericidal activity against Bacillus subtilis MTCC 736 assessed as inhibition of bacterial growth incubated overnight; type: functional
[16] = tested on: Staphylococcus aureus; experiment: Bactericidal activity against Staphylococcus aureus MTCC 902 assessed as inhibition of bacterial growth incubated overnight; type: functional
[17] = tested on: Pseudomonas aeruginosa; experiment: Bactericidal activity against Pseudomonas aeruginosa MTCC 2453 assessed as inhibition of bacterial growth incubated overnight; type: functional
[18] = tested on: Salmonella typhi; experiment: Bactericidal activity against Salmonella typhi assessed as inhibition of bacterial growth incubated overnight; type: functional, Salmonella enterica subsp. enterica serovar Typhi; settings: Salmonella enterica
[19] = tested on: Escherichia coli; experiment: Ratio of MBC for antibacterial activity against Escherichia coli MTCC 443 to MIC for bactericidal activity against Escherichia coli MTCC 443; type: functional
[20] = tested on: Enterococcus faecalis; experiment: Ratio of MBC for antibacterial activity against Enterococcus faecalis MTCC 439 to MIC for bactericidal activity against Enterococcus faecalis MTCC 439; type: functional
[21] = tested on: Bacillus subtilis; experiment: Ratio of MBC for antibacterial activity against Bacillus subtilis MTCC 736 to MIC for bactericidal activity against Bacillus subtilis MTCC 736; type: functional
[22] = tested on: Salmonella typhi; experiment: Ratio of MBC for antibacterial activity against Salmonella typhi to MIC for bactericidal activity against Salmonella typhi; type: functional, Salmonella enterica subsp. enterica serovar Typhi
[23] = tested on: Staphylococcus aureus; experiment: Ratio of MBC for antibacterial activity against Staphylococcus aureus MTCC 902 to MIC for bactericidal activity against Staphylococcus aureus MTCC 902; type: functional
[24] = tested on: Acinetobacter baumannii; experiment: Antibacterial activity against Acinetobacter baumannii assessed as inhibition of bacterial growth; type: functional
[25] = tested on: Staphylococcus aureus; experiment: Antibacterial activity against Staphylococcus aureus assessed as inhibition of bacterial growth; type: functional
[26] = tested on: Escherichia coli; experiment: Antibacterial activity against Escherichia coli clinical isolate ECJH2 assessed as diameter of zone of inhibition by disk diffusion assay; type: functional
[27] = tested on: Escherichia coli; experiment: Antibacterial activity against Escherichia coli clinical isolate ECJH3 assessed as diameter of zone of inhibition by disk diffusion assay; type: functional
[28] = tested on: Escherichia coli; experiment: Antibacterial activity against Escherichia coli clinical isolate ECJH5 assessed as diameter of zone of inhibition by disk diffusion assay; type: functional
[29] = tested on: Escherichia coli; experiment: Antibacterial activity against Escherichia coli clinical isolate ECJH6 assessed as diameter of zone of inhibition by disk diffusion assay; type: functional
[30] = tested on: Escherichia coli; experiment: Antibacterial activity against Escherichia coli clinical isolate ECJH7 assessed as diameter of zone of inhibition by disk diffusion assay; type: functional
[31] = tested on: Escherichia coli; experiment: Antibacterial activity against Escherichia coli clinical isolate ECJH8 assessed as diameter of zone of inhibition by disk diffusion assay; type: functional
[32] = tested on: Escherichia coli; experiment: Antibacterial activity against Escherichia coli clinical isolate ECJH9 assessed as diameter of zone of inhibition by disk diffusion assay; type: functional
[33] = tested on: Escherichia coli; experiment: Antibacterial activity against Escherichia coli clinical isolate ECJH10 assessed as diameter of zone of inhibition by disk diffusion assay; type: functional
[34] = tested on: Escherichia coli; experiment: Antibacterial activity against Escherichia coli clinical isolate ECJH11 assessed as diameter of zone of inhibition by disk diffusion assay; type: functional
[35] = tested on: Escherichia coli; experiment: Antibacterial activity against Escherichia coli clinical isolate ECJH15 assessed as diameter of zone of inhibition by disk diffusion assay; type: functional
[36] = tested on: Escherichia coli; experiment: Antibacterial activity against Escherichia coli clinical isolate ECJH16 assessed as diameter of zone of inhibition by disk diffusion assay; type: functional
[37] = tested on: Escherichia coli; experiment: Antibacterial activity against Escherichia coli clinical isolate ECJH17 assessed as diameter of zone of inhibition by disk diffusion assay; type: functional
[38] = tested on: Escherichia coli; experiment: Antibacterial activity against Escherichia coli clinical isolate ECJH18 assessed as diameter of zone of inhibition by disk diffusion assay; type: functional
[39] = tested on: Escherichia coli; experiment: Antibacterial activity against Escherichia coli clinical isolate ECJH19 assessed as diameter of zone of inhibition by disk diffusion assay; type: functional
[40] = tested on: Escherichia coli; experiment: Antibacterial activity against Escherichia coli clinical isolate ECJH21 assessed as diameter of zone of inhibition by disk diffusion assay; type: functional
[41] = tested on: Escherichia coli; experiment: Antibacterial activity against Escherichia coli clinical isolate ECJH23 assessed as diameter of zone of inhibition by disk diffusion assay; type: functional
[42] = tested on: Escherichia coli; experiment: Antibacterial activity against Escherichia coli clinical isolate ECJH24 assessed as diameter of zone of inhibition by disk diffusion assay; type: functional
[43] = tested on: Escherichia coli; experiment: Antibacterial activity against Escherichia coli clinical isolate ECJH25 assessed as diameter of zone of inhibition by disk diffusion assay; type: functional

SMILES	zone of inhibition at 500 µg/mL [1] [mm]	zone of inhibition at 500 µg/mL [2] [mm]	zone of inhibition at 500 µg/mL [3] [mm]	zone of inhibition at 500 µg/mL [4] [mm]	zone of inhibition at 500 µg/mL [5] [mm]	zone of inhibition at 500 µg/mL [6] [mm]	MIC [7] [µg/mL]	MIC [8] [µg/mL]	MIC [9] [µg/mL]	MIC [10] [µg/mL]	MIC [11] [µg/mL]	MIC [12] [µg/mL]	MBC [13] [µg/mL]	MBC [14] [µg/mL]	MBC [15] [µg/mL]	MBC [16] [µg/mL]	MBC [17] [µg/mL]	MBC [18] [µg/mL]	Ratio [19]	further results
O=[N+]([O-])c1ccc(/C=N/CCNc2ccnc3cc(Cl)ccc23)cc1	12	9	8	10	8	10	256 (≈ 722 µM)	256 (≈ 722 µM)	512 (≈ 1440 µM)	256 (≈ 722 µM)	512 (≈ 1440 µM)	256 (≈ 722 µM)	256 (≈ 722 µM)	256 (≈ 722 µM)	512 (≈ 1440 µM)	> 512	> 512	256 (≈ 722 µM)	1	Ratio [20]: 1; Ratio [21]: 1; Ratio [22]: 1
Clc1ccc2c(NCC/N=C/c3ccco3)ccnc2c1	9	9	10	10	9	9	512 (≈ 1710 µM)	512 (≈ 1710 µM)	256 (≈ 854 µM)	256 (≈ 854 µM)	512 (≈ 1710 µM)	512 (≈ 1710 µM)	512 (≈ 1710 µM)	> 512	256 (≈ 854 µM)	256 (≈ 854 µM)	> 512	> 512	1	Ratio [21]: 1; Ratio [23]: 1
Oc1cccc(/C=N/CCNc2ccnc3cc(Cl)ccc23)c1	13	10	9	10	8	10	256 (≈ 786 µM)	512 (≈ 1570 µM)	> 512	512 (≈ 1570 µM)	> 512	256 (≈ 786 µM)	256 (≈ 786 µM)	512 (≈ 1570 µM)	–	> 512	–	256 (≈ 786 µM)	1	Ratio [20]: 1; Ratio [22]: 1
Cc1ccc(N/N=C/c2ccc(CN3CCN(c4ccnc5cc(Cl)ccc45)CC3)cc2)cc1	–	–	–	–	–	–	–	–	–	–	–	–	–	–	–	–	–	–	–	MIC [24]: 2 µg/mL (≈ 4.26 µM)
CCCCCCCCCCCCOC(=O)c1cc(OCCCCCCCCCCCC)nc2ccccc12	–	–	–	–	–	–	–	–	–	–	–	–	–	–	–	–	–	–	–	MIC [25]: 6.25 µg/mL (≈ 11.9 µM)
CC1(C)S[C@@H]2[C@H](NC(=O)[C@H](N)c3ccccc3)C(=O)N2[C@H]1C(=O)O [AMPICILLIN]	–	–	–	–	–	–	–	–	–	–	–	–	–	–	–	–	–	–	–	diameter of the inhibition zone (DIZ) [26]: 22 mm; diameter of the inhibition zone (DIZ) [27]: 19 mm; diameter of the inhibition zone (DIZ) [28]: 18 mm; diameter of the inhibition zone (DIZ) [29]: 14 mm; diameter of the inhibition zone (DIZ) [30]: 24 mm; diameter of the inhibition zone (DIZ) [31]: 21 mm; diameter of the inhibition zone (DIZ) [32]: 16 mm; diameter of the inhibition zone (DIZ) [33]: 18 mm; diameter of the inhibition zone (DIZ) [34]: 21 mm; diameter of the inhibition zone (DIZ) [35]: 20 mm; diameter of the inhibition zone (DIZ) [36]: 17 mm; diameter of the inhibition zone (DIZ) [37]: 16 mm; diameter of the inhibition zone (DIZ) [38]: 17 mm; diameter of the inhibition zone (DIZ) [39]: 17 mm; diameter of the inhibition zone (DIZ) [40]: 18 mm; diameter of the inhibition zone (DIZ) [41]: 20 mm; diameter of the inhibition zone (DIZ) [42]: 22 mm; diameter of the inhibition zone (DIZ) [43]: 22 mm
N/N=C/c1cc(N2CCOCC2)c2cccc(C(F)(F)F)c2n1	–	–	–	–	–	–	–	–	–	–	–	–	–	–	–	–	–	–	–	MIC [24]: 2 µg/mL (≈ 6.17 µM)
Cc1cccc2c1NC(=O)/C2=N\CCNc1ccnc2cc(Cl)ccc12	11	–	12	11	12	–	256 (≈ 702 µM)	> 512	256 (≈ 702 µM)	256 (≈ 702 µM)	256 (≈ 702 µM)	> 512	> 512	–	> 512	256 (≈ 702 µM)	> 512	–	–	Ratio [23]: 1
CC(NC1=NC(c2cc3cc(OCc4cccc(Cl)c4)ccc3nc2O)N=CN1)c1ccccc1 (centres undefined)	–	–	–	–	–	–	–	–	–	–	–	–	–	–	–	–	–	–	–	MIC [25]: 2 µg/mL (≈ 4.12 µM)
